Key:
[1] = biological target: AMPK; assay: Kinase Profiler; assay type: biochemical; settings: STF-31 10 μM
Experimental: (§1) Cell Culture and Reagents. All cells were grown in DMEM+10% FCS. ACHN and ACHN shVHL were a kind gift from George V. Thomas (UCLA). HIF overexpressing clones were described previously (Sutphin et al., Cancer Res, 67:5896-5905 (2007)). Transfection of RNA oligos were performed with DnarmaFECT Reagent 1 (Dharmcon), according to manufacturer's directions. ON-TARGETplus SMART pools against HIF-1 R/ARNT were purchased from Dharmacon. Inducible shRNAmir to GLUT1 was purchased from Open Biosystems. GLUT1 was detected with anti-GLUT1 antibody from NeoMarkers/LabVision/Fisher. For immunofluorescent studies, GLUT1, GLUT2, and GLUT3 antibodies were purchased from R&D. Pyruvate/lactate levels and hexokinase activity were both measured by fluorometric assay (BioVision and Sigma-Aldrich, respectively). ATP levels were measured by bioluminescence assay (ATP Determination Kit from Molecular Probes/Invitrogen). In vitro kinase activities were performed by Millipore Kinase Profiler.

[2] = biological target: T1, DYRK2 (Homo sapiens, UniProt Q92630); assay: Kinase Profiler; assay type: biochemical; settings: STF-31 10 μM
T1 construct: purchased Millipore (Kinase Profiler service)
Experimental: as §1

[3] = biological target: T2, IKKα (Homo sapiens, UniProt O15111); assay: Kinase Profiler; assay type: biochemical; settings: STF-31 10 μM
T2 construct: purchased Millipore Kinase Profiler
Experimental: as §1

[4] = biological target: T3, c-RAF (Homo sapiens, UniProt P04049); assay: Kinase Profiler; assay type: biochemical; settings: STF-31 10 μM
T3 construct: purchased Millipore (Kinase Profiler service)
Experimental: as §1

[5] = biological target: T4, NEK2 (Homo sapiens, UniProt P51955); assay: Kinase Profiler; assay type: biochemical; settings: STF-31 10 μM
T4 construct: purchased Millipore Kinase Profiler
Experimental: as §1

[6] = biological target: T5, Fyn (Homo sapiens, UniProt P06241); assay: Kinase Profiler; assay type: biochemical; settings: STF-31 10 μM
T5 construct: purchased Millipore Kinase Profiler
Experimental: as §1

[7] = biological target: T6, Abl (Homo sapiens, UniProt P00519); assay: Kinase Profiler; assay type: biochemical; settings: STF-31 10 μM
T6 construct: purchased Millipore (Kinase Profiler service)
Experimental: as §1

[8] = biological target: T7, CHK1 (Homo sapiens, UniProt O14757); assay: Kinase Profiler; assay type: biochemical; settings: STF-31 10 μM
T7 construct: purchased Millipore (Kinase Profiler service)
Experimental: as §1

[9] = biological target: T8, EphA1 (Homo sapiens, UniProt P21709); assay: Kinase Profiler; assay type: biochemical; settings: STF-31 10 μM
T8 construct: purchased Millipore (Kinase Profiler service)
Experimental: as §1

[10] = biological target: T9, PKCδ (Homo sapiens, UniProt Q05655); assay: Kinase Profiler; assay type: biochemical; settings: STF-31 10 μM
T9 construct: purchased Millipore (Kinase Profiler service)
Experimental: as §1

[11] = biological target: T10, IRAK1 (Homo sapiens, UniProt P51617); assay: Kinase Profiler; assay type: biochemical; settings: STF-31 10 μM
T10 construct: purchased Millipore Kinase Profiler
Experimental: as §1

[12] = biological target: T11, JNK1α1 (Homo sapiens, UniProt P45983); assay: Kinase Profiler; assay type: biochemical; settings: STF-31 10 μM
T11 construct: purchased Millipore Kinase Profiler
Experimental: as §1

[13] = biological target: T12, ASK1 (Homo sapiens, UniProt Q99683); assay: Kinase Profiler; assay type: biochemical; settings: STF-31 10 μM
T12 construct: purchased Millipore (Kinase Profiler service)
Experimental: as §1

[14] = biological target: T13, Aurora-A (Homo sapiens, UniProt O14965); assay: Kinase Profiler; assay type: biochemical; settings: STF-31 10 μM
T13 construct: purchased Millipore (Kinase Profiler service)
Experimental: as §1

[15] = biological target: T14, Hck (Homo sapiens, UniProt P08631); assay: Kinase Profiler; assay type: biochemical; settings: STF-31 10 μM
T14 construct: purchased Millipore Kinase Profiler
Experimental: as §1

[16] = biological target: T15, GSK3α (Homo sapiens, UniProt P49840); assay: Kinase Profiler; assay type: biochemical; settings: STF-31 10 μM
T15 construct: purchased Millipore Kinase Profiler
Experimental: as §1

[17] = biological target: T16, ROCK-I (Homo sapiens, UniProt Q13464); assay: Kinase Profiler; assay type: biochemical; settings: STF-31 10 μM
T16 construct: purchased Millipore (Kinase Profiler service)
Experimental: as §1

[18] = biological target: T17, PAK2 (Homo sapiens, UniProt Q13177); assay: Kinase Profiler; assay type: biochemical; settings: STF-31 10 μM
T17 construct: purchased Millipore Kinase Profiler
Experimental: as §1

[19] = biological target: T18, PKA (Homo sapiens, UniProt P17612); assay: Kinase Profiler; assay type: biochemical; settings: STF-31 10 μM
T18 construct: purchased Millipore Kinase Profiler
Experimental: as §1

[20] = biological target: T19, DAPK1 (Homo sapiens, UniProt P53355); assay: Kinase Profiler; assay type: biochemical; settings: STF-31 10 μM
T19 construct: purchased Millipore (Kinase Profiler service)
Experimental: as §1

[21] = biological target: T20, CaMKI (Homo sapiens, UniProt Q14012); assay: Kinase Profiler; assay type: biochemical; settings: STF-31 10 μM
T20 construct: purchased Millipore (Kinase Profiler service)
Experimental: as §1

[22] = biological target: T21, CDK6/cyclinD3 (Homo sapiens, UniProt Q00534); assay: Kinase Profiler; assay type: biochemical; settings: STF-31 10 μM
T21 construct: purchased Millipore (Kinase Profiler service)
Experimental: as §1

[23] = biological target: T22, TrkA (Homo sapiens, UniProt P04629); assay: Kinase Profiler; assay type: biochemical; settings: STF-31 10 μM
T22 construct: purchased Millipore (Kinase Profiler service)
Experimental: as §1

[24] = biological target: T23, cSRC (Homo sapiens, UniProt P12931); assay: Kinase Profiler; assay type: biochemical; settings: STF-31 10 μM
T23 construct: purchased Millipore (Kinase Profiler service)
Experimental: as §1

[25] = biological target: T24, Syk (Homo sapiens, UniProt P43405); assay: Kinase Profiler; assay type: biochemical; settings: STF-31 10 μM
T24 construct: purchased Millipore (Kinase Profiler service)
Experimental: as §1

[26] = biological target: T25, FGFR1 (Homo sapiens, UniProt P11362); assay: Kinase Profiler; assay type: biochemical; settings: STF-31 10 μM
T25 construct: purchased Millipore Kinase Profiler
Experimental: as §1

[27] = biological target: T26, JAK2 (Homo sapiens, UniProt O60674); assay: Kinase Profiler; assay type: biochemical; settings: STF-31 10 μM
T26 construct: purchased Millipore Kinase Profiler
Experimental: as §1

[28] = biological target: T27, Rsk1 (Homo sapiens, UniProt Q15418); assay: Kinase Profiler; assay type: biochemical; settings: STF-31 10 μM
T27 construct: purchased Millipore (Kinase Profiler service)
Experimental: as §1

[29] = biological target: T28, cKit(D816H) (Homo sapiens, UniProt P10721, D816H); assay: Kinase Profiler; assay type: biochemical; settings: STF-31 10 μM
T28 construct: purchased Millipore (Kinase Profiler service)
Experimental: as §1

[30] = biological target: T29, MLK1 (Homo sapiens, UniProt P80192); assay: Kinase Profiler; assay type: biochemical; settings: STF-31 10 μM
T29 construct: purchased Millipore Kinase Profiler
Experimental: as §1

[31] = biological target: T30, PKBα (Homo sapiens, UniProt P31749); assay: Kinase Profiler; assay type: biochemical; settings: STF-31 10 μM
T30 construct: purchased Millipore Kinase Profiler
Experimental: as §1

[32] = biological target: T31, Plk3 (Homo sapiens, UniProt Q9H4B4); assay: Kinase Profiler; assay type: biochemical; settings: STF-31 10 μM
T31 construct: purchased Millipore (Kinase Profiler service)
Experimental: as §1

[33] = biological target: T32, Met (Homo sapiens, UniProt P08581); assay: Kinase Profiler; assay type: biochemical; settings: STF-31 10 μM
T32 construct: purchased Millipore Kinase Profiler
Experimental: as §1

[34] = tested on: VHL-deficient and wild-type VHL cells; assay: Oxygen consumption; assay type: cell-based
Experimental: Oxygen Consumption. Following treatment with vehicle or drug, cells were trypsinized, suspended at 5 million cells per ml in DMEM+10% FCS, and oxygen consumption was measured in 0.5 ml volume using an Oxytherm electrode unit (Hansatech).

T4 sequence (P51955 whole entry, species assumed): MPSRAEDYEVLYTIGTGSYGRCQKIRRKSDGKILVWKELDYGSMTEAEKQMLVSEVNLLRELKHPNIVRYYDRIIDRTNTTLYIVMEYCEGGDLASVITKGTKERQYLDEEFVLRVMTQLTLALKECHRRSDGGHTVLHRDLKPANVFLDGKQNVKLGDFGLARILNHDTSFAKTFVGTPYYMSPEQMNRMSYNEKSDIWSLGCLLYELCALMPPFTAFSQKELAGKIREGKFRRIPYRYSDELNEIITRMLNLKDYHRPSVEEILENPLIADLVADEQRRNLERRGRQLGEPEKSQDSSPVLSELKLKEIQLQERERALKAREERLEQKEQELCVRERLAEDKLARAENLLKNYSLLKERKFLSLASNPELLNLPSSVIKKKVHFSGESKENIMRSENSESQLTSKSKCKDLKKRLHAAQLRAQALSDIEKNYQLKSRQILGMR
T15 sequence (P49840 whole entry, species assumed): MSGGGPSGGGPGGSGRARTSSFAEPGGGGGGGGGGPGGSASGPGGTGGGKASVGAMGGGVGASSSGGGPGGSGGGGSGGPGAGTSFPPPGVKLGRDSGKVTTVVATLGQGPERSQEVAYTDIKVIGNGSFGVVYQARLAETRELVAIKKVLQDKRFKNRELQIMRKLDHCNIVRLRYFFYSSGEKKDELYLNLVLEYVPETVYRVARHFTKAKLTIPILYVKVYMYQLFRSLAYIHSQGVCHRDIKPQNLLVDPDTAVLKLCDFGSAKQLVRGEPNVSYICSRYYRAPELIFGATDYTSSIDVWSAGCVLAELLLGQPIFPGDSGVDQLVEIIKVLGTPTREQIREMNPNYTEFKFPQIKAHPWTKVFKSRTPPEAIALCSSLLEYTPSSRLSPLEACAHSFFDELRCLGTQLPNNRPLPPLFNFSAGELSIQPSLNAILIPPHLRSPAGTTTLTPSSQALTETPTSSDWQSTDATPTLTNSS
T2 sequence (O15111 whole entry, species assumed): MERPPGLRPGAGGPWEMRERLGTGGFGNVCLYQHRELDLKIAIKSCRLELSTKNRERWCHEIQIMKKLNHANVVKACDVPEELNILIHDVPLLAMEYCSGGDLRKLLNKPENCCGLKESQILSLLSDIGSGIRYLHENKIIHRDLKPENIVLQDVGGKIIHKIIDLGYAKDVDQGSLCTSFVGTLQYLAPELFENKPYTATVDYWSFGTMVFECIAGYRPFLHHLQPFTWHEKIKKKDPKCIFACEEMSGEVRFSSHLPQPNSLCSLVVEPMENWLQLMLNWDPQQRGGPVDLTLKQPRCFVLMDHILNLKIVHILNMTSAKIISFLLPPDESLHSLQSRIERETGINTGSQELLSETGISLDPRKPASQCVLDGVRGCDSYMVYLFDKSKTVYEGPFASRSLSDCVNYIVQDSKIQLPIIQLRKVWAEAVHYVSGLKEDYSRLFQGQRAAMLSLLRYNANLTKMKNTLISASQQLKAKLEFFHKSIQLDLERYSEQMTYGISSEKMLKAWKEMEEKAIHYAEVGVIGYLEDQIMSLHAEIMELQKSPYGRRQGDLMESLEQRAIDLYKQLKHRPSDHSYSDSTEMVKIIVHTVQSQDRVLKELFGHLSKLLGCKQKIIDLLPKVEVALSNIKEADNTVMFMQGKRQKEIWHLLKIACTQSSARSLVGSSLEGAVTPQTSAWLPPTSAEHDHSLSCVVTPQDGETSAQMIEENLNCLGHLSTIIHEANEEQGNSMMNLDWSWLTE
T5 sequence (P06241 whole entry, species assumed): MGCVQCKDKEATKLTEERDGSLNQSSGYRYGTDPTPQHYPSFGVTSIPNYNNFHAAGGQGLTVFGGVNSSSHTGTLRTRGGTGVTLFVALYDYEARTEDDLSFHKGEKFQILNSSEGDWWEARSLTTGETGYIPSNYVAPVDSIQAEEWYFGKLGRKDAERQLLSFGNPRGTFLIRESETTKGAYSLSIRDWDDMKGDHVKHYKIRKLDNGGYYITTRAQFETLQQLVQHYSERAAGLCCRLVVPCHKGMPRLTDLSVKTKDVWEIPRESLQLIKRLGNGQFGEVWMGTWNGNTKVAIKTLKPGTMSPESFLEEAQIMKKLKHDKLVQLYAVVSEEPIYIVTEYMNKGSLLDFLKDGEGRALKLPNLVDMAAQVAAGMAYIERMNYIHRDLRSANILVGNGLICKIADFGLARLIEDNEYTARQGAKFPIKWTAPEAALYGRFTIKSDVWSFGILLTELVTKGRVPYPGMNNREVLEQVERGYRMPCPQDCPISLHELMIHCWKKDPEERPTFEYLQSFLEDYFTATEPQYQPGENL
T28 sequence (P10721 26-976 D816H): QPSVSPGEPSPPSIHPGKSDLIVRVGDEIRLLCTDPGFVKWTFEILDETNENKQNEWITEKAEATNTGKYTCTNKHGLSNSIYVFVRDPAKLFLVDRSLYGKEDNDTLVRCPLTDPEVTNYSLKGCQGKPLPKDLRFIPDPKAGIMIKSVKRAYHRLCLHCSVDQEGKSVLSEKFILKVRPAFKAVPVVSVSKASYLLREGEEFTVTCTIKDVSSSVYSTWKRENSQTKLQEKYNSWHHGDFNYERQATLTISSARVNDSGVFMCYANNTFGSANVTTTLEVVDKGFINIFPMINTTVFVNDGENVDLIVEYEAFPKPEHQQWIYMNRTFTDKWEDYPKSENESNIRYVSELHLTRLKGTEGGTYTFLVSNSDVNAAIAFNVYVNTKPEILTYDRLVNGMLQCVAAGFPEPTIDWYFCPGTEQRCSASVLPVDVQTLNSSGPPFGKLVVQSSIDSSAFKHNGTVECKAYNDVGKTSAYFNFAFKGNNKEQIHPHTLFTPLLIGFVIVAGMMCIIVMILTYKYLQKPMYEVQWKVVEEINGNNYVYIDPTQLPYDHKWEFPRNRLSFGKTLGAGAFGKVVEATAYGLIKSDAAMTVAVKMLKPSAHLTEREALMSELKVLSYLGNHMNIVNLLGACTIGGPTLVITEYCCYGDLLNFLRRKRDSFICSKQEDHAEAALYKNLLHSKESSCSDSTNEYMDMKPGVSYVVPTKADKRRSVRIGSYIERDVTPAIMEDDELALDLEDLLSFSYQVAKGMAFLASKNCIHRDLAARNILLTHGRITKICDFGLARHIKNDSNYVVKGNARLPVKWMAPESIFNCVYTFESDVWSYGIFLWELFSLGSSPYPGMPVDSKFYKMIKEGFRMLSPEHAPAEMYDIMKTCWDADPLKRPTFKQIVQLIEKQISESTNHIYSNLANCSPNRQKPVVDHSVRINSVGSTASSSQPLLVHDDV
T25 sequence (P11362 22-822, species assumed): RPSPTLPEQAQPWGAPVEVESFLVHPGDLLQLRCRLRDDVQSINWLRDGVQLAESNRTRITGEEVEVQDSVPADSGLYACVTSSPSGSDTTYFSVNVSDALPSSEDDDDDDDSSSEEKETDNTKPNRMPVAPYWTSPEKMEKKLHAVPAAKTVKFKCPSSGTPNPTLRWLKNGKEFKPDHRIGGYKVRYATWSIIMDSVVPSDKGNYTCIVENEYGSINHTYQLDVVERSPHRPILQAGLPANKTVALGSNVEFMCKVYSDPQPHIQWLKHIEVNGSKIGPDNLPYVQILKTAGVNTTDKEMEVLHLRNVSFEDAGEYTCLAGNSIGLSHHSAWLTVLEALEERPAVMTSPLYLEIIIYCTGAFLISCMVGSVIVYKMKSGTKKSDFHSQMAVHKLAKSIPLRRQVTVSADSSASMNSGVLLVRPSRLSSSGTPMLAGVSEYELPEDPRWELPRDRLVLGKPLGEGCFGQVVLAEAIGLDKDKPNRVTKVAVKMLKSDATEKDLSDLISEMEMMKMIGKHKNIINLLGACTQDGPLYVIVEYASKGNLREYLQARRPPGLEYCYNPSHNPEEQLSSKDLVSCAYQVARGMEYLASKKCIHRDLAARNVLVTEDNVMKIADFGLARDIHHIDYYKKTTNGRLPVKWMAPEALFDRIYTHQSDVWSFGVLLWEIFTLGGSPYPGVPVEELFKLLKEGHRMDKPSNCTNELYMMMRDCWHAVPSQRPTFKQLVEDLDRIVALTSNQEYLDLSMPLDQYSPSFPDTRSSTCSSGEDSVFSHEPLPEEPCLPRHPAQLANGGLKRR
T22 sequence (P04629 33-796, species assumed): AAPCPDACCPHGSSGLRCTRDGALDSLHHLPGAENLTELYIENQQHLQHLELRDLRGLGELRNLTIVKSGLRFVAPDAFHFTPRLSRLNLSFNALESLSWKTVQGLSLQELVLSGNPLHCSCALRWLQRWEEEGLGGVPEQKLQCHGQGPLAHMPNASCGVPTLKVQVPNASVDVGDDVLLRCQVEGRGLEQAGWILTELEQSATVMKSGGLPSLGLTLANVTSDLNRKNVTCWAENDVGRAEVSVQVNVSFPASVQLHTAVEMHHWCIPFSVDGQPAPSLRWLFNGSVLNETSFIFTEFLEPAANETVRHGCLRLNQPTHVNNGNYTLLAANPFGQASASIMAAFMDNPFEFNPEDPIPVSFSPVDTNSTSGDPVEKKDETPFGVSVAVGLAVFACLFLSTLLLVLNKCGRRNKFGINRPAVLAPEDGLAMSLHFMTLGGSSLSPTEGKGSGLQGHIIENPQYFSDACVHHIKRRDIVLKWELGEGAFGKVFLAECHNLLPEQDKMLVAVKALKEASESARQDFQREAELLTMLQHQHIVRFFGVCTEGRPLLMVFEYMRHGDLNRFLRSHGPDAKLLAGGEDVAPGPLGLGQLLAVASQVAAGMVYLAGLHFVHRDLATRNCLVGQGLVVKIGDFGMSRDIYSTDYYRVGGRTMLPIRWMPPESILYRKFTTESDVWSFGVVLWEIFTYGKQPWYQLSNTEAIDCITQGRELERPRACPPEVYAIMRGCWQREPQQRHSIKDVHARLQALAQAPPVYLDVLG

With CC(C)(C)c1ccc(S(=O)(=O)NCc2ccc(C(=O)Nc3cccnc3)cc2)cc1 [STF-31] the “Kinase response to STF-31” value [1] was 92, the “Kinase response to STF-31” value [2] was 94 and the “Kinase response to STF-31” value [3] was 102. For the same molecule, the “Kinase response to STF-31” value [4] was 103, the “Kinase response to STF-31” value [5] was 103 and the “Kinase response to STF-31” value [6] was 91. For the same molecule, the “Kinase response to STF-31” value [7] was 108, the “Kinase response to STF-31” value [8] was 114 and the “Kinase response to STF-31” value [9] was 102. For the same molecule, the “Kinase response to STF-31” value [10] was 116, the “Kinase response to STF-31” value [11] was 105 and the “Kinase response to STF-31” value [12] was 101. For the same molecule, the “Kinase response to STF-31” value [13] was 129, the “Kinase response to STF-31” value [14] was 108 and the “Kinase response to STF-31” value [15] was 84. For the same molecule, the “Kinase response to STF-31” value [16] was 134, the “Kinase response to STF-31” value [17] was 74 and the “Kinase response to STF-31” value [18] was 97. For the same molecule, the “Kinase response to STF-31” value [19] was 96, the “Kinase response to STF-31” value [20] was 92 and the “Kinase response to STF-31” value [21] was 87. For the same molecule, the “Kinase response to STF-31” value [22] was 105, the “Kinase response to STF-31” value [23] was 124 and the “Kinase response to STF-31” value [24] was 104. For the same molecule, the “Kinase response to STF-31” value [25] was 94, the “Kinase response to STF-31” value [26] was 107 and the “Kinase response to STF-31” value [27] was 113. For the same molecule, the “Kinase response to STF-31” value [28] was 120, the “Kinase response to STF-31” value [29] was 99 and the “Kinase response to STF-31” value [30] was 97. For the same molecule, the “Kinase response to STF-31” value [31] was 99, the “Kinase response to STF-31” value [32] was 104 and the “Kinase response to STF-31” value [33] was 105. The “oxygen consumption, treated versus not treated cells” value [34] was “no difference”.

Source: patent publication US9079859B2, “Synthetic lethal targeting of glucose transport” (AUCKLAND UNISERVICES LIMITED, priority 2011, dated 2015)
